Reference: patent US7488732B2, “2-substituted pyrimidines” (BASF Aktiengesellschaft, priority 2003, dated 2009)

Columns and labels:
[1] = tested on: Sphaerotheca fuliginea; experiment: Activity against mildew on cucumber leaves caused by Sphaerotheca fuliginea, protective application; format: in vivo; conditions: 250 ppm, protective spray on cucumber seedlings, rated after 7 days; untreated control 90% infection
Method: The active compounds were prepared as a stock solution with 0.25% by weight of active compound in acetone or DMSO. 1% by weight of the emulsifier Uniperol® EL (wetting agent having emulsifying and dispersing action based on ethoxylated alkylphenols) was added to this solution, and the solution was diluted with water to the desired concentration. 3. Activity against mildew on cucumber leaves caused by Sphaerotheca fuliginea, protective application Leaves of potted cucumber seedlings of the cultivar “Chinese snake” were, at the cotyledon stage, sprayed to runoff point with an aqueous suspension of the active compound concentration given below. 20 hours after the spray coating had dried on, the plants were inoculated with an aqueous spore suspension of mildew of cucumber (Sphaerotheca fuliginea). The plants were then cultivated in a greenhouse at temperatures between 20 and 24° C. and 60 to 80% relative atmospheric humidity for 7 days. The extend of the mildew development was then determined visually in % infection of the coltyledon area.

[2] = tested on: Botrytis cinerea; experiment: Activity against gray mold on capsicum leaves caused by Botrytis cinerea, protective application; format: in vivo; conditions: 250 ppm, protective spray on capsicum seedlings, rated after 5 days; untreated control 90% infection
Method: The active compounds were prepared as a stock solution with 0.25% by weight of active compound in acetone or DMSO. 1% by weight of the emulsifier Uniperol® EL (wetting agent having emulsifying and dispersing action based on ethoxylated alkylphenols) was added to this solution, and the solution was diluted with water to the desired concentration. 2. Activity against gray mold on capsicum leaves caused by Botrytis cinerea, protective application Capsicum seedlings of the cultivar “Neusiedler Ideal Elite” were, after 4-5 leaves had fully developed, sprayed to runoff point with an aqueous suspension of the active compound concentration given below. The next day, the treated plants were inoculated with a spore suspension of Botrytis cinerea comprising 1.7×10^6 spores/ml in a 2% aqueous biomalt solution. The test plants were subsequently placed in a climatized chamber at 22 to 24° C. and high atmospheric humidity. After 5 days, the extent of the fungal infection on the leaves could be determined visually in %.

CCC(C)Cc1nc(C#N)nc(C)c1-c1c(F)cc(F)cc1F (centres unmarked) [I-4, 2-Cyano-4-methyl-5-(2,4,6-trifluorophenyl)-6-(2-methylbutyl)pyrimidine]
infection (mildew, determined visually in % infection of the cotyledon area) [1]: no infection | infection (gray mold on leaves, determined visually in %) [2]: no infection
